According to patent USRE42152E1, “Aromatic-linked polyamine macrocyclic compounds with anti-HIV activity” (Genzyme Corporation, priority 1992, dated 2011):
Converted amounts (≈) assume the structure as drawn. Like-named read-outs stand apart in the source and are kept apart here.

Key:
gp120/41 mediated fusion = conditions: HIV-1 IIIb infected HUT78 cells with MOLT4 cells
Source text: Syncytium formation between chronically infected cells and uninfected cells reflects the gp120/41 mediated fusion process of vital entry.

[1] = Cytotoxicity by MTT method in MT-4 cells; type: cell-based; conditions: human
[2] = tested on: low-passage primary clinical isolates of HIV-1 (K31, D370, K6/2); conditions: primary T4 cells; isolates K31 Zaire, D370 California, K6/2 Germany
Procedure: Primary T4 lymphocytes were purified from human spleens obtained from healthy donors by using a commercial kit (“Lympho-Kwik”) which combines reaction of cells with specific monoclonal antibodies and density gradient centrifugation to separate the cells. […] Cells were stimulated with 2 μg/ml PHA for 24 hours. Then they were spun down and infected with HIV-1, strain IIIb, by suspending the cells 10-fold concentrated in virus solution. Adsorption was allowed for 2 hours at 37° C. The inoculum was removed by centrifugation and the cells were re-suspended at their original concentration in fresh culture medium containing IL-2 (40 IE/ml). Test compound was added after stimulation and virus adsorption. Every 3 to 4 days post infection half of the supernatant of the infected cultures was removed and replaced by fresh medium containing the test compound at the particular concentration, The concentration of vital p24 antigen was determined in the supernatent by means of a commercial ELISA kit (Coulter) and served as a parameter for virus production.

MOLT4 cells = conditions: concentrations below 300 μg/ml; cell numbers 2, 3 and 4 days after seeding
HIV-1, BaL = assay: microbe, parasite or virus in culture; type: cell-based
Procedure: Mononuclear cells were isolated from healthy, HIV-negative donors using Ficoll density separation. Cells (4×10^6/ml) were incubated for 5 days in 48 well plates (Costar) in monocyte medium consisting of RPMII640, supplemented with 20% ECS and 10% human serum. On day 5 non-adherent cells were washed out four times with warm PBS containing 2% human serum.
The monocytotropic strain of HIV-1, BaL, was used for the infection of these monocyte preparations (Pemo et al, 1 Exp Meal, 169, 933, 1989).
Adherent monocytes were exposed to […] of a 1:30 dilution of HIV-1, BaL for 30 minutes subsequently, monocyte medium was added to 1 ml/well. Adsorption was allowed for 24 hours at 37° C. Then, the wells were washed twice in order to remove excess virus and were cultivated in the presence of different drug concentrations. Thus, test compounds were added after adsorption. Every 3 to 4 days post infection the supernatant of the infected cultures was removed and replaced by fresh medium containing the test compound at the particular concentration. The concentration of viral p24 antigen was determined as described above.
(§1) IC50 and IC90 values were calculated by comparing the p24 antigen concentrations in supernatent of treated, infected cells and uncreated, infected cells at days 11 and 14 post infection.

[3] = tested on: HIV-1 IIIb, RF, HE and NDK strains; assay: microbe, parasite or virus in culture; conditions: Human immunodeficiency virus 1, IIIB, MT4, read-out: IC50 against IIIb, RF, HE and NDK strains
Procedure: The compounds of the invention were tested in a screen by the MTT method (I Vixol Methods […] [1988]). MT-4 cells (2.5×10^4/well) were challenged with HIV-1 (HTLV-IIIB) or HIV-2 (LAV-2 ROD) at a concentration of 100 CCID50 and incubated in the presence of various concentrations of the test compounds, which were added immediately after challenge with the virus. After 5 days culture at 37° C. in a CO2 incubator, the number of viable cells was assessed by the MTT (tetrazolium) method. […] The potential therapeutic usefulness was assessed by calculating a Selectivity Index (SI) corresponding to the ratio of CC50 to IC50.

HIV-1 (HTLV-IIIB) = assay: microbe, parasite or virus in culture; type: cell-based; conditions: Human immunodeficiency virus 1, IIIB, MT4, 120 h; MT-4 cells, 100 CCID50, 5 days, MTT; read-out: IC50 HIV-1 (IIIB)
[4] = tested on: HIV uncoating (or fusion); assay: Sensitivity of viral RNA from freshly infected MT4 cells to RNase degradation (uncoating); type: cell-based; conditions: radiolabelled viral particles, RNA harvested 4 hours after infection
Source text: It was reasoned that if tincoating (fusion) was hampered, the viral capsid (or envelope) proteins would remain associated with the viral RNA genome and thus the RNA should be protected against RNase attack.

HUT78 cells = conditions: concentrations below 300 μg/ml; cell numbers 2, 3 and 4 days after seeding
HIV-1, strain IIIb = assay: microbe, parasite or virus in culture; type: cell-based
Procedure: Adsorption was allowed for 2 hours at 37° C. […] Test compound was added after stimulation and virus adsorption.
as §1

HIV-2 (LAV-2 ROD) = assay: MTT anti-viral screen, MT-4 cells challenged with HIV-2; type: cell-based; conditions: Human immunodeficiency virus 2, MT4, 120 h, read-out: IC50 HIV-2 (ROD)
Jurkat cells = assay: Growth of exponentially growing cells (cell numbers); type: cell-based; conditions: concentrations below 300 μg/ml; cell numbers 2, 3 and 4 days after seeding
U937 cell line = conditions: concentrations below 300 μg/ml; cell numbers 2, 3 and 4 days after seeding
MT4 cells = conditions: concentrations below 300 μg/ml; cell numbers 2, 3 and 4 days after seeding

c1cc(CN2CCCNCCNCCCNCC2)ccc1CN1CCCNCCNCCCNCC1 [Compound B, 1,1′-[1,4-phenylenebis(methylene)]bis-1,4,8,11-tetraazacyclotetradecane]
concentrations required for inhibition of fusion (syncytium formation) (gp120/41 mediated fusion): approximately 1 μg/ml
CC50 at 5 days ([1]; CC50 (HIV-1 (IIIB))): > 500000 ng/mL
CC50 at 5 days ([1]; CC50 (HIV-2 (ROD))): > 500000 ng/mL
inhibition of viral replication [2]: strong inhibitor
inhibition of cell growth (MOLT4 cells): did not inhibit growth
IC90 (HIV-1, BaL; Human immunodeficiency virus 1, BAL, Monocyte, primary monocytes, stated for both primary cell types, read-out: IC90 values): 1 to 2 ng/mL (≈ 1.99 to 3.98 nM)
IC50 (HIV-1, BaL; Human immunodeficiency virus 1, Monocyte, 264 h, Monocytes, HIV-1 BaL, p24, day 11 post infection, read-out: IC50 day 11): < 1 ng/mL
IC90 (HIV-1, BaL; Human immunodeficiency virus 1, Monocyte, 264 h, Monocytes, HIV-1 BaL, p24, day 11 post infection, read-out: IC90 day 11): 1.9 ng/mL (≈ 3.78 nM)
IC50 (HIV-1, BaL; Human immunodeficiency virus 1, Monocyte, 336 h, Monocytes, HIV-1 BaL, p24, day 14 post infection, read-out: IC50 day 14): 1.1 ng/mL (≈ 2.19 nM)
IC90 (HIV-1, BaL; Human immunodeficiency virus 1, Monocyte, 336 h, Monocytes, HIV-1 BaL, p24, day 14 post infection, read-out: IC90 day 14): 2.1 ng/mL (≈ 4.18 nM)
IC50 [3]: 2 to 5 ng/mL (≈ 3.98 to 9.94 nM)
IC50 (HIV-1 (HTLV-IIIB)): 6 ng/mL (≈ 11.9 nM)
resistance of viral RNA to degradation by RNase [4]: showed resistance to degradation by RNaseA
inhibition of cell growth (HUT78 cells): did not inhibit growth
IC90 (HIV-1, strain IIIb; Human immunodeficiency virus 1, IIIB, Lymphocyte, primary T4 lymphocytes, stated for both primary cell types, read-out: IC90 values): 1 to 2 ng/mL (≈ 1.99 to 3.98 nM)
IC50 (HIV-1, strain IIIb; Human immunodeficiency virus 1, Lymphocyte, 264 h, Lymphocytes, HIV-1 IIIb, p24, day 11 post infection, read-out: IC50 day 11): < 1 ng/mL
IC90 (HIV-1, strain IIIb; Human immunodeficiency virus 1, Lymphocyte, 264 h, Lymphocytes, HIV-1 IIIb, p24, day 11 post infection, read-out: IC90 day 11): < 1 ng/mL
IC50 (HIV-1, strain IIIb; Human immunodeficiency virus 1, Lymphocyte, 336 h, Lymphocytes, HIV-1 IIIb, p24, day 14 post infection, read-out: IC50 day 14): < 1 ng/mL
IC90 (HIV-1, strain IIIb; Human immunodeficiency virus 1, Lymphocyte, 336 h, Lymphocytes, HIV-1 IIIb, p24, day 14 post infection, read-out: IC90 day 14): 1 ng/mL (≈ 1.99 nM)
IC50 (HIV-2 (LAV-2 ROD)): < 10 ng/mL
inhibition of cell growth (Jurkat cells): did not inhibit growth
inhibition of cell growth (U937 cell line): did not inhibit growth
inhibition of cell growth (MT4 cells): did not inhibit growth
